Assay results published in ChEMBL document CHEMBL1201862, “PubChem BioAssay data set” (2004).
Values belong to the compound of their own block, whether it stands above or below them. Calls of active or inactive are those of the source.

Experiments:
Estrogen receptor beta [1] = molecular target: T1, Estrogen receptor beta (Homo sapiens, UniProt Q92731); assay: ERβ–SRC-3 coactivator interaction inhibitors, confirmation, orthogonal assay, biochemical, ELISA, streptavidin-HRP readout (AID 1060)
Estrogen receptor beta [2] = molecular target: T1, Estrogen receptor beta
fMet-Leu-Phe receptor = molecular target: T2, fMet-Leu-Phe receptor (Homo sapiens, UniProt P21462); assay: FPR ligands, dose response (AID 519); type: functional
T2 sequence (P21462 whole entry): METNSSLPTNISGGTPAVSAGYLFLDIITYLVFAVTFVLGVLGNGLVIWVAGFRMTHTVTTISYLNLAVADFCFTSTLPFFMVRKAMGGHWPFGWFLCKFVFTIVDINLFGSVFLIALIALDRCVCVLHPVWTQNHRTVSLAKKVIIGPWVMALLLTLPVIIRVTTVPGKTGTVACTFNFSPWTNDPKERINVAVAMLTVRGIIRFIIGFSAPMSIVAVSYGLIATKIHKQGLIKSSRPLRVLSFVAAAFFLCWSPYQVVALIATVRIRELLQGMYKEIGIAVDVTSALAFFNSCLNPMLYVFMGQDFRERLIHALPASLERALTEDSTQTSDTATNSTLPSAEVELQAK

[3] = molecular target: T3, Polyadenylate-binding protein 1 (Homo sapiens, UniProt P11940); assay: PABP1 MLLE–PAM2 interaction inhibitors, dose response, miRNA deadenylation inhibitor project, biochemical, fluorescence polarization, Cy5-PAM2 peptide, secondary (AID 602260); type: functional; details: read-out: IC50_Mean
T3 sequence (P11940 whole entry): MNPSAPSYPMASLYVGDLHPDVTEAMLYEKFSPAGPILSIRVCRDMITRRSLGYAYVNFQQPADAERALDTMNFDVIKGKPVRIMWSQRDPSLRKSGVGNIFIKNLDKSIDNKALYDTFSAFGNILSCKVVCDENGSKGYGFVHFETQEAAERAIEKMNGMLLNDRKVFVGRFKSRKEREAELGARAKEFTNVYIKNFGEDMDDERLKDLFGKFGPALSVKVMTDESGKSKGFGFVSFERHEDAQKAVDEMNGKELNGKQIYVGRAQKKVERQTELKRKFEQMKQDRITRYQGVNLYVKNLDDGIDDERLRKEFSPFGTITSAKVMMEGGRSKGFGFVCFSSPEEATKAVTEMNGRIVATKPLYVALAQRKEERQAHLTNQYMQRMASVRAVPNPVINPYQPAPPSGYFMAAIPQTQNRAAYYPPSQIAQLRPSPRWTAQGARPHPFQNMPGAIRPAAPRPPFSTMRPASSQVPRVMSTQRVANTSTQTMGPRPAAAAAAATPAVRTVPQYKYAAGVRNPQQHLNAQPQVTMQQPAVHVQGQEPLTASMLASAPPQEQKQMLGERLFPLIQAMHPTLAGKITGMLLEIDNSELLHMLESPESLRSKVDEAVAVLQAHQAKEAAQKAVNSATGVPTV

[4] = molecular target: T3, Polyadenylate-binding protein 1; assay: PABP1 MLLE–PAM2 binding inhibitor potency, dose response, biochemical, fluorescence polarization, FITC-PAM2 peptide (AID 602259); type: functional; details: read-out: IC50_Mean
[5] = molecular target: Heat shock protein HSP 90-alpha (Homo sapiens, UniProt P07900); type: functional, organism-based
[6] = Luminescence Cell-Based Dose Retest to Confirm Inhibitors of Cancer Stem Cells. [Related pubchem assays (depositor defined):AID2717, AID2721]; type: functional; details: Homo sapiens
[7] = molecular target: T4, Nuclear receptor subfamily 0 group B member 1 (Homo sapiens, UniProt P51843); assay: Luminescence-based cell-based high throughput dose response assay for inhibitors of the orphan nuclear receptor subfamily 0, group B, member 1 (DAX1; NR0B1). [Related pubchem assays (depositor defined):AID504766, AID504790]; type: functional
T4 sequence (P51843 whole entry): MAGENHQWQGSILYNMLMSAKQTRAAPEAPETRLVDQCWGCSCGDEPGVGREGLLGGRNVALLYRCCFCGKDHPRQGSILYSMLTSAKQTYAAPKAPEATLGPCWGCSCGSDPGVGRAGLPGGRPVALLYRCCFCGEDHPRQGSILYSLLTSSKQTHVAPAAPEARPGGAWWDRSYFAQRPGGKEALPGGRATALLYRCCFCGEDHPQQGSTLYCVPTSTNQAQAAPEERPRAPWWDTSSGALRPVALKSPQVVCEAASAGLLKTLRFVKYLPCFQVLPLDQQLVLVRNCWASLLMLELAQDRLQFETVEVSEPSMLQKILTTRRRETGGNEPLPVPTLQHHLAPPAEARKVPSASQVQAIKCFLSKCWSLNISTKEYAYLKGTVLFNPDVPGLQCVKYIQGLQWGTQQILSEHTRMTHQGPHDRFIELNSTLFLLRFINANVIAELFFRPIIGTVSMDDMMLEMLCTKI

HEK293 = assay: cells; type: functional, cell-based; details: Homo sapiens
[8] = HEp-2 cell cytotoxicity, dose response, cytotoxicity control for RSV inhibitor project, HTS (AID 2410); type: functional; details: human respiratory syncytial virus
[9] = inhibitors of intracellular T. cruzi replication, confirmation, NIH3T3 host cells, beta-gal luminescence (AID 2044); type: functional, cell-based;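 also: intracellular parasites grown in NIH/3T3 mouse fibroblasts as host cells; luminescent beta-galactosidase reporter signal from transgenic T. cruzi replicating inside host cells; inhibitors lower the luminescence signal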
Beta-galactosidase = Beta-galactosidase (Escherichia coli, UniProt Q8VNN2); assay: Dose response counterscreen for EBI2 assay utilizing the enzyme, b-galactosidase.; type: functional
Beta-galactosidase, sequence (Q8VNN2 whole entry): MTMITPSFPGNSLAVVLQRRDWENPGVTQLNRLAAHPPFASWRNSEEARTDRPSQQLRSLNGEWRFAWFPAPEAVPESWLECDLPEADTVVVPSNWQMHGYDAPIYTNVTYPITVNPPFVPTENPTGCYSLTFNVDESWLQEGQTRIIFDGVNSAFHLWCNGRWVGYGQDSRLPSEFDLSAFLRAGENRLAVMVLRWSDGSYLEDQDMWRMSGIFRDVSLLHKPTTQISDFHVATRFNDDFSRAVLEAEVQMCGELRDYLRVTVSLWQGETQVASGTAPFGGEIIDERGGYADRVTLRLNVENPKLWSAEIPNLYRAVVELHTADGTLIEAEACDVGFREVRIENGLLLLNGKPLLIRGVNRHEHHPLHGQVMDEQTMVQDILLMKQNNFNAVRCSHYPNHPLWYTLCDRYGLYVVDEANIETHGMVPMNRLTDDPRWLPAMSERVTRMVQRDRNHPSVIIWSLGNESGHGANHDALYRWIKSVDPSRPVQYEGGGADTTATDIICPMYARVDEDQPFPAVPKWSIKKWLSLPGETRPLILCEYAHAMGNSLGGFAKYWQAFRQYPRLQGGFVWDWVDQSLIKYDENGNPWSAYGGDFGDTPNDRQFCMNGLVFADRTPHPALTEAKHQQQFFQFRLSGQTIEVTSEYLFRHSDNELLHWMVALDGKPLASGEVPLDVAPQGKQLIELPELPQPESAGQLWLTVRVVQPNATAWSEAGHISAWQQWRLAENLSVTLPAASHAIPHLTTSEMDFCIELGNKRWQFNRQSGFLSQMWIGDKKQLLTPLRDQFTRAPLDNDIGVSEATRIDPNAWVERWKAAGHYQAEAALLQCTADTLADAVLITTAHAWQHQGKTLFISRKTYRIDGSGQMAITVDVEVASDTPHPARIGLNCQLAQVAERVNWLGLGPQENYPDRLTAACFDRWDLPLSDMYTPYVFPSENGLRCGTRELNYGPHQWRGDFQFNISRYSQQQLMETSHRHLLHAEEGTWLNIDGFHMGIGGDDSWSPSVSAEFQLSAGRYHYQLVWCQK

[10] = cytotoxicity toward NIH3T3 fibroblasts, dose response, counter-screen, cell-based, ATP luminescence, mouse fibroblasts (AID 2010); type: functional;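 also: cells exposed to compound for about 90 hours before reading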
HT-1080 = assay: cytotoxicity in HT1080 fibrosarcoma cells, cell-based, fluorescence readout (AID 620); type: functional; details: Homo sapiens
[11] = AlphaScreen signal interference compounds, dose response, artefact control for ARNT-TACC3 interaction inhibitor project, biochemical, luminescence, cherry-pick (AID 651705); type: functional;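 also: AlphaScreen bead proximity signal that flags compounds interfering with the detection technology; potency reflects signal decrease which marks the compound as an assay artifact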
[12] = molecular target: T5, Low molecular weight phosphotyrosine protein phosphatase (Homo sapiens, UniProt P24666); type: functional; details: read-out: IC50_Mean;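 also: Dose-response confirmation assay measuring inhibition of LMPTP enzyme activity by fluorescence intensity read-out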
T5 sequence (P24666 whole entry): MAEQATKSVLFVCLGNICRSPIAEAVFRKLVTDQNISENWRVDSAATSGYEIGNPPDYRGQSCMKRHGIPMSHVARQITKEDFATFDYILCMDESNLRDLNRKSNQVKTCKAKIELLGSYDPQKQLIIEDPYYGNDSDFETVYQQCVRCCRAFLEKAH

Melanocortin receptor 4 = Melanocortin receptor 4 (Homo sapiens, UniProt P32245); type: functional, cell-based;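 also: Cell-based assay with luminescence read-out, confirmatory dose-response testing for agonist activity of biased ligands at MC4R; human U2OS cells with tagged receptor and beta-arrestin; potency of agonists that increase receptor coupling to beta-arrestin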
Melanocortin receptor 4, sequence (P32245 whole entry): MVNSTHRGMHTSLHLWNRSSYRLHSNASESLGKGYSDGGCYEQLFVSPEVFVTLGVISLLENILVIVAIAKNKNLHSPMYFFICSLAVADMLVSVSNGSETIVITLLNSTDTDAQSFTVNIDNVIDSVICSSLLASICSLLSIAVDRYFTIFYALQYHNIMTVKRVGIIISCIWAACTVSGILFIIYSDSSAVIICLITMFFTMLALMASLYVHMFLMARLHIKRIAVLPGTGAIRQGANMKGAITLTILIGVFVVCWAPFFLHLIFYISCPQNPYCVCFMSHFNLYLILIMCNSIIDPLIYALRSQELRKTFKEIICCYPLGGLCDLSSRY

[13] = miR-122 activators in hepatoma reporter cells, dose response, cell-based, Huh7 psiCHECK-miR122, Renilla luciferase, cherry-picked (AID 651956); type: functional;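 also: huh7 hepatoma cells stably carrying a psiCHECK-2 miR-122 sensor plasmid; renilla luciferase signal reporting endogenous miR-122 activity after 48 h compound exposure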
Cysteine protease ATG4B = molecular target: T6, Cysteine protease ATG4B (Homo sapiens, UniProt Q9Y4P1); type: functional;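 also: Fluorescence-based dose-response confirmation assay measuring inhibition of ATG4B activity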
T6 sequence (Q9Y4P1 whole entry): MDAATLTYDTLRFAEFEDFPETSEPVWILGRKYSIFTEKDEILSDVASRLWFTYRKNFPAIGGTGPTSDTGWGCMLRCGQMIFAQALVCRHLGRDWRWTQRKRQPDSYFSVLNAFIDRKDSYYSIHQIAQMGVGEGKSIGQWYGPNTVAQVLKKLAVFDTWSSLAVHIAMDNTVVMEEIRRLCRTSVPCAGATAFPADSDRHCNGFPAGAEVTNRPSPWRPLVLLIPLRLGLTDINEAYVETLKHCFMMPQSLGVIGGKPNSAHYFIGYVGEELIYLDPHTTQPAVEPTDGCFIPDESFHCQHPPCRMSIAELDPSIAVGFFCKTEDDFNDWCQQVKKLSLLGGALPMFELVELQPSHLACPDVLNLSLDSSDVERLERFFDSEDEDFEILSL

Phospholipase A2 = Phospholipase A2 (Homo sapiens, UniProt P04054); type: functional;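 also: confirmatory dose-response counterscreen on phospholipase A2, testing hits that came from an ultra-high-throughput screen for ATG4B inhibitors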
Phospholipase A2, sequence (P04054 whole entry): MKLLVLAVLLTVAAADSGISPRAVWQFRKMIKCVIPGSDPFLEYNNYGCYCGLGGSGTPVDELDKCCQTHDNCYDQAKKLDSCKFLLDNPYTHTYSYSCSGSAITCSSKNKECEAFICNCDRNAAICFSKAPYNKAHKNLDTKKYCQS

T1 sequence (Q92731 whole entry): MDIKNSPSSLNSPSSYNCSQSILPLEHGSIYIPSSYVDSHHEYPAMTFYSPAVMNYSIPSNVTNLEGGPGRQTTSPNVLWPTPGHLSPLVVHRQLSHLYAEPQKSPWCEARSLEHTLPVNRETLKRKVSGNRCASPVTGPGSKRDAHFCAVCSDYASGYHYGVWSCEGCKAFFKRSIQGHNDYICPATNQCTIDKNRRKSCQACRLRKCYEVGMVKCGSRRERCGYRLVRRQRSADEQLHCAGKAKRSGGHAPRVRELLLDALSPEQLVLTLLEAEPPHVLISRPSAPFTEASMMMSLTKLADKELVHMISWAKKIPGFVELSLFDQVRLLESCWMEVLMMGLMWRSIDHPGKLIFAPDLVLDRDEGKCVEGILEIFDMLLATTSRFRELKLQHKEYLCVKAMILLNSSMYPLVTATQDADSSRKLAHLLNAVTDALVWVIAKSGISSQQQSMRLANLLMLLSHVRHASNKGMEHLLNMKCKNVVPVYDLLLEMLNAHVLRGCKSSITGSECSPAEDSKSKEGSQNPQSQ

IC50 (Estrogen receptor beta [1]): 96.2 µM (not active)
IC50 (Estrogen receptor beta [2]): 3.37 µM (active)
Ki (fMet-Leu-Phe receptor): > 66.7 µM (inactive)
IC50 [3]: > 66 µM (inactive)
IC50 [4]: > 66 µM (inactive)
SMILES: COc1cc2c3c(c1)/C(=C1/SC(NC(C)=O)=NC1=O)C(=O)N3C(C)(C)C=C2C

SMILES: COc1cc(N=Nc2ccc3ccccc3c2)ccc1O
AC50 [5]: 10.7 µM (active)
AC50 [6]: 2.65 µM (active)
IC50 [7]: > 67.6 µM (inactive)
IC50 (HEK293): > 67.6 µM (inactive)
CC50 [8]: 23.3 µM (active)

SMILES: COc1ccccc1N(C(=O)c1ccncc1)c1nc(-c2ccc([N+](=O)[O-])cc2)cs1
EC50 [9]: 0.448 µM (active)
IC50 (Beta-galactosidase): > 80 µM (inactive)
EC50 [10]: > 60 µM (inconclusive)
CC50 [8]: 29.6 µM (active)

SMILES: CC(C)(C)c1ccc(OCC(O)CSc2nc[nH]n2)cc1 (stereo not drawn)
EC50 (HT-1080): > 50 µM (not active)

IC50 (Beta-galactosidase): > 80 µM (inactive)
SMILES: Cc1ccc(S(=O)(=O)N2CCN(C(=O)/C=C/c3ccccc3)CC2)cc1C

Ki (fMet-Leu-Phe receptor): > 66.7 µM (inactive)
SMILES: COc1ccc2cnn(-c3ccccc3)c(=O)c2c1OC

SMILES: O=C(COC(=O)c1cccc(O)c1)Nc1nnc(-c2ccccc2)o1
AC50 [11]: 74.4 µM (active)

SMILES: O=C(O)CC(CC(=O)Nc1ccc(F)c(Cl)c1)c1ccc(Cl)cc1Cl (stereo not drawn)
IC50 [7]: > 67.5 µM (inactive)
IC50 (HEK293): > 67.5 µM (inactive)

IC50 [12]: 5.17 µM (active)
SMILES: CC(C)(C)OC(=O)[C@H](Cc1ccccc1)NC(=O)c1ncn2c1c(O)nc1ccc(Br)cc12

EC50 (Melanocortin receptor 4): > 89.2 µM (inactive)
SMILES: COc1ccc(C(NC(=O)C2CCN(CCOc3ccc(Cl)cc3Cl)CC2)c2cccs2)cc1 (stereo not drawn)

IC50 (Beta-galactosidase): > 80 µM (inactive)
SMILES: Cc1cc(C)c2c(=O)n3c(nc2c1)C(Cc1ccccc1)NC(=O)c1cc2ccccc2cc1-3 (stereo not drawn)

SMILES: CNC(=O)C[C@@H]1CC[C@@H]2[C@H](COc3ccc(NC(=O)Nc4cccc(C)c4)cc3C(=O)N2C)O1
AC50 [13]: 24.9 µM (active)

IC50 (Cysteine protease ATG4B): 11.5 µM (active)
IC50 (Phospholipase A2): 62.7 µM (inactive)
SMILES: O=C(O)/C=C/c1ccccc1Oc1ccc(Cl)cc1Cl

SMILES: COc1cccc(/C=N/NC(=O)c2cccs2)c1
IC50 [7]: > 67.5 µM (inactive)
IC50 (HEK293): > 67.5 µM (inactive)
